Assay results published in patent US6608087B1, “Gyrase inhibitors and uses thereof” (Vertex Pharmaceuticals Incorporated, priority 2000, dated 2003).

Biological target: E. coli gyrase A2B2 (Escherichia coli, UniProt P0AES6)
Experiment: ATPase assay, E. coli gyrase A2B2 (coupled pyruvate kinase/lactate dehydrogenase)
Type: biochemical
Settings: 30° C., 0.9 mM ATP, 40 nM enzyme, read-out: Activity against E. coli gyrase (Ki)
Description: The ATP hydrolysis activity of DNA gyrase was measured by coupling the production of ADP through pyruvate kinase/lactate dehydrogenase to the oxidation of NADH. This method has been described previously. (Tamura and Gellert, 1990, J. Biol. Chem.265, 21342-21349).
ATPase assays were carried out at 30° C. in buffered solutions containing 100 mM TRIS pH 7.6, 1.5 mM MgCl2, and 150 mM KCl. The coupling system contained (final concentrations) 2.5 mM phosphoenol pyruvate, 200 μM nicotinamide adenine dinucleotide (NADH), 1 mM DTT, 30 ug/ml pyruvate kinase, and 10 ug/ml lactate dehydrogenase. 40 nM enzyme (374 kDa Gyr A2B2 from E coli) and a DMSO solution of the inhibitor to a final concentration of 4% were added and the reaction mixture allowed to incubate for 10 minutes at 30° C. The reaction was then started by the addition of ATP to a final concentration of 0.9 mM and the rate of NADH disappearance at 340 nm, measured over the course of 10 minutes. Ki values were determined from rate versus. inhibitor concentration profiles.

Structure (SMILES) | Ki [nM]
COC(=O)NCc1cc(-c2sc(-c3ccccc3)nc2N2CCN(Cc3ccccc3)CC2)n[nH]1 [IA-18] | 500 to 1500
CCOC(=O)c1cc(-c2cnn(-c3cccc(Cl)c3)c2C)n[nH]1 [ID-28, 1′-(3-Chloro-phenyl)-5′-methyl-1H,1′H-[3,4′]bipyrazolyl-5-carboxylic Acid Ethyl Ester] | > 1500
CCOC(=O)c1cc(-c2sc(-c3ccccc3)nc2CN2CCNCC2)n[nH]1 [IA-67] | 500 to 1500
COC(=O)NCc1cc(-c2sc(-c3ccccc3)nc2N2CCNCC2)n[nH]1 [IA-37] | > 1500
CCOC(=O)c1cc(-c2sc(-c3ccccc3)nc2CN(CC)CC)n[nH]1 [IA-69] | > 1500
CCOC(=O)c1cc(-c2sc(-c3ccccc3)nc2CN2CCOCC2)n[nH]1 [IA-66] | > 1500
CC(C)OC(=O)NCc1cc(-c2sc(-c3ccccc3)nc2-c2ccccc2)n[nH]1 [IA-46] | > 1500
COC(=O)NCc1cc(-c2sc(-c3ccccc3)nc2N2CCCCC2C)n[nH]1 (centres unmarked) [IA-30] | < 500
